From ChEMBL document CHEMBL1142701, “CHMIS-C: a comprehensive herbal medicine information system for cancer” (2005)

System: Panel NCI-60 (60 carcinoma cell lines)
Test: Growth inhibitory activity against human cancer cell line in the NCI's anticancer drug screening program
Format: functional

SMILES: C[C@H]1[C@H](C)CC[C@]2(C(=O)O)CC[C@]3(C)C(=CCC4[C@@]5(C)CC[C@H](O)C(C)(C)C5CC[C@]43C)[C@H]12 (stereo not given in full)
- GI50: 10 nM

SMILES: CCCCCCCC/C=C\CCCCCCCC(=O)O [OLEIC ACID]
- GI50: 10000 nM

SMILES: c1c2c(cc3c1OCO3)-c1cc3ccc4c(c3c[n+]1CC2)OCO4 [COPTISINE]
- GI50: 260 nM

SMILES: O=c1oc2c(O)c(O)cc3c(=O)oc4c(O)c(O)cc1c4c23 [ELLAGIC ACID]
- GI50: 10 nM

SMILES: CC(=O)OC(C)(C)/C=C/C(=O)C(C)(O)C1C(O)CC2(C)C3CC=C4C(C[C@@H](O)C(=O)C4(C)C)C3(C)C(=O)CC12C (stereo not given in full) [AMARIN]
- GI50: 10 nM

SMILES: COc1ccc2cc1Oc1ccc(cc1)C[C@@H]1c3cc(c(OC)cc3CCN1C)Oc1c(OC)c(OC)cc3c1[C@H](C2)N(C)CC3 [ISOTETRANDRINE]
- GI50: 10 nM

SMILES: CN1Cc2c(ccc3c2OCO3)C2C(O)Cc3cc4c(cc3C21)OCO4 (stereo not drawn) [CHELIDONINE (+)]
- GI50: 433 nM

SMILES: C[C@]12CC[C@H]3[C@@H](CC[C@@]4(O)C[C@@H](O)CC[C@]34C=O)[C@]1(O)CC[C@@H]2C1=CC(=O)OC1
- GI50: 94 nM

SMILES: O=c1cc(-c2ccc(O)cc2)oc2cc(O[C@@H]3O[C@H](CO)[C@@H](O)[C@H](O)[C@H]3O)cc(O)c12 [APIGETRIN]
- GI50: 76 nM

SMILES: CC(C)c1oc(=O)cc2c1C(O)C1OC(=O)C3(C)C(O)C4OC4C2(C)C13 (stereo not given) [NAGILACTONE]
- GI50: 363 nM

SMILES: C=C(CC[C@@H](C(=O)O)[C@H]1CC[C@@]2(C)C3=C(CC[C@]12C)[C@@]1(C)CC[C@H](O)C(C)(C)[C@@H]1CC3)C(C)C [EBURICOIC ACID]
- GI50: 10000 nM

SMILES: CO[C@H]1C[C@H](O[C@H]2CC[C@]3(C=O)[C@H]4CC[C@]5(C)[C@@H](C6=CC(=O)OC6)CC[C@]5(O)[C@@H]4CC[C@]3(O)C2)O[C@H](C)[C@H]1O [CYMARIN]
- GI50: 39 nM

SMILES: COc1cc2c(c(OC)c1OC)-c1ccc(OC)c(=O)cc1[C@@H](NC(C)=O)CC2 [COLCHICINE]
- GI50: 1.7 nM

SMILES: CC(=O)O[C@H]1C(=O)[C@@]2(C)[C@H]([C@H](OC(=O)c3ccccc3)[C@]3(O)C[C@H](OC(=O)[C@H](O)[C@@H](NC(=O)c4ccccc4)c4ccccc4)C(C)=C1C3(C)C)[C@]1(OC(C)=O)CO[C@@H]1C[C@@H]2O [PACLITAXEL]
- GI50: 0.1 nM

SMILES: COc1c2cc3c(c1OC)CCN(C)[C@@H]3Cc1ccc(cc1)Oc1cc3c(c(OC)c1OC)CCN(C)[C@@H]3Cc1ccc(cc1)O2 [CYCLEANINE]
- GI50: 17 nM

SMILES: COc1ccc2c(c[n+](C)c3c4cc5c(cc4ccc23)OCO5)c1OC [CHELERYTHRINE CHLORIDE]
- GI50: 188 nM

SMILES: COC(=O)CC(O)(CCC(C)(C)O)C(=O)OC1C(OC)=CC23CCCN2CCc2cc4c(cc2C13)OCO4 (stereo not given)
- GI50: 10 nM

SMILES: Cc1cc(O)c2c(c1)C(=O)c1cc(O)cc(O)c1C2=O [EMODIN]
- GI50: 10000 nM

SMILES: COc1ccc2cc1Oc1ccc(cc1)C[C@H]1c3cc(c(OC)cc3CCN1C)Oc1c(OC)c(OC)cc3c1[C@H](C2)N(C)CC3 [FANCHININ]
- GI50: 10 nM

SMILES: COc1cc([C@@H]2c3cc4c(cc3[C@H](O)[C@H]3COC(=O)[C@H]23)OCO4)cc(OC)c1OC [PODOFILOX]
- GI50: 10 nM

SMILES: COC(=O)C[C@](O)(CCCC(C)(C)O)C(=O)O[C@@H]1C(OC)=C[C@]23CCCN2CCc2cc4c(cc2[C@H]13)OCO4 [OMACETAXINE MEPESUCCINATE]
- GI50: 4.4 nM

SMILES: C=C1C(=O)[C@]23[C@H](O)[C@H]1CC[C@H]2[C@@]12CO[C@]3(O)[C@@H](O)[C@@H]1C(C)(C)CC[C@@H]2O [ORIDONIN]
- GI50: 453 nM

SMILES: COC(=O)C(O)C(O)(CCC(C)C)C(=O)OC1C(OC)=CC23CCCN2CCc2cc4c(cc2C13)OCO4 (stereo not given) [OHARRINGTONINE]
- GI50: 10 nM

SMILES: CC(C)(O)/C=C/C(=O)[C@](C)(O)[C@@H]1C2CC(=O)[C@@]3(C)[C@@H]4C[C@H](O)C(=O)C(C)(C)C4=CC[C@H]3[C@]2(C)C[C@H]1O (stereo not given in full) [ELATERICIN]
- GI50: 23 nM

SMILES: COc1cccc2c1cc([N+](=O)[O-])c1c(C(=O)O)cc3c(c12)OCO3 [ARISTOLOCHIC ACID]
- GI50: 883 nM

SMILES: COc1ccc2c(c1O)-c1c(OC)c(OC)cc3c1C(C2)[N+](C)(C)CC3 (stereo not given) [MENISPERINE]
- GI50: 41 nM

SMILES: COc1cc2c[n+](C)c3c4cc5c(cc4ccc3c2cc1OC)OCO5 [NITIDINE CHLORIDE]
- GI50: 125 nM

SMILES: CC[C@@]1(O)C(=O)OCc2c1cc1n(c2=O)Cc2cc3ccccc3nc2-1 [CAMPTOTHECIN]
- GI50: 10 nM

SMILES: O=C1N[C@@H]2C(=C[C@H](O)[C@@H](O)[C@H]2O)c2cc3c(c(O)c21)OCO3 [NARCICLASINE]
- GI50: 45 nM

SMILES: CC(C=CC=C(C)/C=C/C1=C(C)CCCC1(C)C)=CCO [RETINOL]
- GI50: 28 nM
